Patent publication US10993983B2, “Cyclic peptide epitopes and small-molecule mimics for inducing autophagy” (TRUSTEES OF TUFTS COLLEGE, priority 2016, dated 2021)
Entries after “also recorded” stand apart in the source; their conditions may differ. Marks after values point to notes of the source that are not given here. Bridges are numbered along the chain shown (N, C = ends). Where no end group is shown, it is not given here. [ ]: non-standard residue; d: D form. The star is where a group is joined. cyanopropanyl = 3-cyanopropanyl N-terminal cap, N#CCCC*; Nicotinoyl = O=C(c1cccnc1)*

Assays:
Format in all cases: cell-based
HeLa cells = assay: Autophagy induction judged by p62 and LC3 immunoblots together; set-up: key to Activity compared to wild-type WT / Activity (μM) 10, single symbol / Activity (μM) 30, single symbol / Activity (μM) 50, single symbol / Activity (μM) 100, single symbol: −: activity not reported; 0: decreased vs. WT; +: similar to WT; ++: modest increase vs. WT; +++: significant increase vs. WT; conditions: for Activity compared to wild-type WT: Tat-linked linear peptides, summation of p62 degradation assay and LC3 marker assay; for autophagy induction, result in words / concentration at which autophagy induction (p62 degradation and LC3 lipidation) was observed: HeLa cells; for autophagy induction, result in words: p62 and LC3 immunoblots; for concentration at which autophagy induction (p62 degradation and LC3 lipidation) was observed: immunoblot, 3 hour treatment
Method: This 10-mer sequence was substituted with various thiol-containing amino acids at various positions, and then cross-linked with various linkers as described above (FIG. 5, a and FIG. 6).
(§1) Cells were treated with peptide in OPTI-MEM (Thermo Scientific) acidified with 0.15% (v/v) 6N HCl for 3 hour. Cells were rinsed with Dulbecco's phosphate buffered saline (PBS) and lysed in lysis buffer (20 mM HEPES, 150 mM NaCl, 1 mM EDTA, 1% Triton X-100, protease inhibitor cocktail (Roche) on ice for 1 hour. Cell lysates were centrifuged at 16,000 g for 10 min at 4° C. and analyzed by SDS-PAGE and transferred to PVDF membranes. The membranes were blocked 5% non-fat dry milk (NFDM) in PBST (PBS+0.05% Tween-20) for 1 hour, then incubated overnight at 4° C. with primary antibody in 5% NFDM in PBST. The blots were washed with PBST and incubated with HRP-conjugated secondary antibodies diluted in 5% NFDM in PBST for 1 hour at room temperature. Membranes were washed with PBST and visualized with SuperSignal West Pico Chemiluminescent Substrate (Thermo Scientific). Semi-quantitative results were obtained by noting the lowest concentration at which both p62 degradation and LC3-I to LC3-II conversion were observed.
(SEQ ID NO: 16)-Sequence. […] The N-terminus was capped with an acetyl group while the C terminus was capped with a —C(O)—NH2 group. The activity reported is a summation of results from both the p62 degradation assay and the LC3 marker assay.

LC3 = LC3 marker assay (LC3-I to LC3-II conversion immunoblot); set-up: key: −: activity not reported; 0: decreased vs. WT; +: similar to WT; ++: modest increase vs. WT; +++: significant increase vs. WT; conditions: for Activity (μM) 50, LC3 assay activity: 50 μM; for Activity (μM) 100, LC3 assay activity: 100 μM; for Activity (μM) 10, LC3 assay activity: 10 μM; for Activity (μM) 30, LC3 assay activity: 30 μM; for Activity (μM) 20, LC3 assay activity: 20 μM; for Activity (μM) 10, starred cell, LC3 assay activity: Table 8, 10 μM marked * (footnote: data taken at 20 instead of 30 μM)
Method: as §1
(§2) Compounds 1-10 were evaluated using the assays described in Examples 4 and 5. Activity for each compound was measured in the p62 degradation assay and the LC3 marker assay as described herein. The activity at each concentration of peptide is given as, for example, (0/+) where 0 would be the p62/actin assay activity and + would be the LC3 assay activity.

p62 = p62 degradation assay (p62/actin immunoblot); set-up: key: −: activity not reported; 0: decreased vs. WT; +: similar to WT; ++: modest increase vs. WT; +++: significant increase vs. WT; conditions: for Activity (μM) 50, p62/actin assay activity: 50 μM; for Activity (μM) 100, p62/actin assay activity: 100 μM; for Activity (μM) 10, p62/actin assay activity: 10 μM; for Activity (μM) 30, p62/actin assay activity: 30 μM; for Activity (μM) 20, p62/actin assay activity: 20 μM; for Activity (μM) 10, starred cell, p62/actin assay activity: Table 8, 10 μM marked * (footnote: data taken at 20 instead of 30 μM)
Method: as §1, §2

[1] = Table 8, control compound T25, second symbol
[2] = Table 8, control compound T25, first symbol
[3] = Table 6, control DMSO, second symbol
[4] = Table 6, control DMSO, first symbol
[5] = Table 3, control vehicle, second symbol of cell
[6] = Table 3, control vehicle, second symbol
[7] = Table 3, control vehicle, first symbol of cell
[8] = Table 3, control vehicle, first symbol
[9] = Table 7, control compound T25, second symbol
[10] = Table 7, control compound T25, first symbol

Substance: VFNATFEFWHD [Compound T18, Tat-linked linear peptide]
- Activity compared to wild-type WT (HeLa cells): +

Substance: (pa)-VcAAcFHIWH (pa-V[dC]AA[dC]FHIWH; linker 2-5 via ortho‑xylene (inferred)) [Asn3Ala]
- autophagy induction, result in words (HeLa cells): milder effects on activity

Substance: (nicot)-VcNAcFHIWH (Nicotinoyl-V[dC]NA[dC]FHIWH; linker 2-5 via ortho‑xylene (inferred); not fully specified (C-terminus); printed as (nicot)-VcNAcFHIWH) [nicot-DD5-o]
- autophagy induction, result in words (HeLa cells; listed as nicotinic acid cap): showed no activity; also recorded: no activity was observed

Substance: VWNATFHIWAD [Compound T42, Tat-linked linear peptide]
- Activity compared to wild-type WT (HeLa cells): +++

Substance: CFNATFEIWHD [Compound T1, Tat-linked linear peptide]
- Activity compared to wild-type WT (HeLa cells): +

Substance: VFNATFELWHD [Compound T8, Tat-linked linear peptide]
- Activity compared to wild-type WT (HeLa cells): ++

Substance: (pa)-VcNACFHIWH (pa-V[dC]NACFHIWH; linker 2-5 via ortho‑xylene (inferred)) [DL5-o]
- autophagy induction, result in words (HeLa cells): mildly increased autophagy

Substance: (free amine)-VcNAcFHIWH (H-V[dC]NA[dC]FHIWH; linker 2-5 via ortho‑xylene (inferred); not fully specified (C-terminus); printed as VcNAcFHIWH) [Compound H2N-DD5-o]
- autophagy induction, result in words (HeLa cells): almost no autophagy-inducing activity

Substance: WNATFHIW [Compound T35, Tat-linked linear peptide]
- Activity compared to wild-type WT (HeLa cells): ++

Substance: (cyano)-VcNAcFHIWH (cyanopropanyl-V[dC]NA[dC]FHIWH; linker 2-5 via ortho‑xylene (inferred); not fully specified (C-terminus); printed as (cyano)-VcNAcFHIWH) [cyano-DD5-o]
- autophagy induction, result in words (HeLa cells): induced autophagy, but to a somewhat lesser extent than DD5-o

Substance: (pa)-VcNATcHIWH (pa-V[dC]NAT[dC]HIWH; linker 2-6 via meta‑xylene (inferred)) [DD6-m]
- concentration at which autophagy induction (p62 degradation and LC3 lipidation) was observed (HeLa cells): 100 µM
- autophagy induction, result in words (HeLa cells): capable of inducing autophagy

Substance: (pa)-VWNATFHIWH (not fully specified (N-terminus, C-terminus); printed as (pa)-VWNATFHIWH) [pa-10mer, no linker]
- concentration at which autophagy induction (p62 degradation and LC3 lipidation) was observed (HeLa cells): 100 µM
- autophagy induction, result in words (HeLa cells): barely detectable activity

Substance: FNATFHIWH [Compound T31, Tat-linked linear peptide]
- Activity compared to wild-type WT (HeLa cells): +

Substance: VWNATFHIAHD [Compound T41, Tat-linked linear peptide]
- Activity compared to wild-type WT (HeLa cells): +

Substance: VFNATFEMWHD [Compound T16, Tat-linked linear peptide]
- Activity compared to wild-type WT (HeLa cells): +

Substance: VCNATCHIWH (V[dC]NAT[dC]HIWH; cysteine pairing not given here; also: Formula I modifications, R1 T, Z MP) [Compound 75]
- Activity (μM) 10, single symbol (HeLa cells; 10 μM, Table 8, one symbol only): +

Substance: VWNATFHYWHD [Compound T26, Tat-linked linear peptide]
- Activity compared to wild-type WT (HeLa cells): +++

Substance: (pa)-VcNAcFHAWH (pa-V[dC]NA[dC]FHAWH; linker 2-5 via ortho‑xylene (inferred)) [Ile8Ala]
- autophagy induction, result in words (HeLa cells): complete loss of activity; also recorded: complete loss in activity

Substance: DFNATFEIWHD [Compound T23, Tat-linked linear peptide]
- Activity compared to wild-type WT (HeLa cells): 0

Substance: FNATFEIWH [Compound T30, Tat-linked linear peptide]
- Activity compared to wild-type WT (HeLa cells): +

Substance: (hexyno)-VcNAcFHIWH (hexynoyl-V[dC]NA[dC]FHIWH; linker 2-5 via ortho‑xylene (inferred); not fully specified (C-terminus); printed as (hexyno)-VcNAcFHIWH) [hexyno-DD5-o]
- autophagy induction, result in words (HeLa cells): induced autophagy, but to a somewhat lesser extent than DD5-o

Substance: (pa)-VWNATFHIWHD (not fully specified (N-terminus, C-terminus); printed as (pa)-VWNATFHIWHD) [pa-11mer, no linker]
- autophagy induction, result in words (HeLa cells): did not increase autophagic activity; also recorded: loss of activity

Substance: VFNATFEYWHD [Compound T19, Tat-linked linear peptide]
- Activity compared to wild-type WT (HeLa cells): +

Substance: VFNATFERWHD [Compound T20, Tat-linked linear peptide]
- Activity compared to wild-type WT (HeLa cells): +

Substance: VFDATFEIWHD [Compound T3, Tat-linked linear peptide]
- autophagy induction, result in words (HeLa cells): less than Tat-beclin-1

Substance: RCNARCRIWR (H-R[dC]NAR[dC]RIWR; not fully specified (C-terminus); cysteine pairing not given here) [Compound 40]
- Activity (μM) 50, LC3 assay activity (LC3; [1]): 0/0
- Activity (μM) 100, LC3 assay activity (LC3; [1]): 0/0
- Activity (μM) 50, p62/actin assay activity (p62; [2]): 0/0
- Activity (μM) 100, p62/actin assay activity (p62; [2]): 0/0

Substance: VCNATCHIWH [Compound 20]
- Activity (μM) 10, LC3 assay activity (LC3; [3]): ++/++
- Activity (μM) 30, LC3 assay activity (LC3; [3]): ++
- Activity (μM) 50, LC3 assay activity (LC3; [3]): ++
- Activity (μM) 100, LC3 assay activity (LC3; [3]): ++
- Activity (μM) 10, p62/actin assay activity (p62; [4]): ++/++
- Activity (μM) 30, p62/actin assay activity (p62; [4]): +++
- Activity (μM) 50, p62/actin assay activity (p62; [4]): +++
- Activity (μM) 100, p62/actin assay activity (p62; [4]): +++

Substance: VWNATCHIWC [Compound 65]
- Activity (μM) 50, LC3 assay activity (LC3; [1]): 0/0
- Activity (μM) 50, p62/actin assay activity (p62; [2]): 0/0

Substance: VCNATCHIWH [Compound 36]
- Activity (μM) 50, LC3 assay activity (LC3; [1]): 0/0
- Activity (μM) 100, LC3 assay activity (LC3; [1]): 0/0
- Activity (μM) 50, p62/actin assay activity (p62; [2]): 0/0
- Activity (μM) 100, p62/actin assay activity (p62; [2]): 0/0

Substance: VCNATCHIWH [Compound 2]
- Activity (μM) 10, LC3 assay activity (LC3; [5]): 0/0
- Activity (μM) 20, LC3 assay activity (LC3; [6]): 0/0
- Activity (μM) 30, LC3 assay activity (LC3; [1]): 0/0
- Activity (μM) 50, LC3 assay activity (LC3; [6]): 0/0
- Activity (μM) 50, LC3 assay activity (LC3; [1]): +
- Activity (μM) 100, LC3 assay activity (LC3; [6]): 0/0
- Activity (μM) 10, starred cell, LC3 assay activity (LC3; second symbol): 0/0*
- Activity (μM) 10, p62/actin assay activity (p62; [7]): 0/0
- Activity (μM) 20, p62/actin assay activity (p62; [8]): 0/0
- Activity (μM) 30, p62/actin assay activity (p62; [2]): 0/0
- Activity (μM) 50, p62/actin assay activity (p62; [8]): 0/0
- Activity (μM) 50, p62/actin assay activity (p62; [2]): 0
- Activity (μM) 100, p62/actin assay activity (p62; [8]): 0/0
- Activity (μM) 10, starred cell, p62/actin assay activity (p62; first symbol): 0/0*

Substance: VCNACFHIWH [Compound 74]
- Activity (μM) 30, LC3 assay activity (LC3; [1]): ++
- Activity (μM) 50, LC3 assay activity (LC3; [1]): +++/+++
- Activity (μM) 10, starred cell, LC3 assay activity (LC3; second symbol): +
- Activity (μM) 30, p62/actin assay activity (p62; [2]): 0
- Activity (μM) 50, p62/actin assay activity (p62; [2]): +++/+++
- Activity (μM) 10, starred cell, p62/actin assay activity (p62; first symbol): 0

Substance: YGRKKRRQRRRGGVWNATFHIWHD [8] (not fully specified (N-terminus, C-terminus)) [Compound 8]
- Activity (μM) 10, LC3 assay activity (LC3; [5]): +
- Activity (μM) 20, LC3 assay activity (LC3; [6]): ++
- Activity (μM) 50, LC3 assay activity (LC3; [6]): +++
- Activity (μM) 10, p62/actin assay activity (p62; [7]): 0
- Activity (μM) 20, p62/actin assay activity (p62; [8]): 0
- Activity (μM) 50, p62/actin assay activity (p62; [8]): ++

Substance: VCNATCHIWH [Compound 27]
- Activity (μM) 30, LC3 assay activity (LC3; [9]): 0/0
- Activity (μM) 50, LC3 assay activity (LC3; [9]): 0/0
- Activity (μM) 100, LC3 assay activity (LC3; [9]): 0/0
- Activity (μM) 30, p62/actin assay activity (p62; [10]): 0/0
- Activity (μM) 50, p62/actin assay activity (p62; [10]): 0/0
- Activity (μM) 100, p62/actin assay activity (p62; [10]): 0/0
